The results in this text go back to patent publication US10272260B2, “Methods and devices for diagnosing, monitoring, or treating medical conditions through an opening through an airway wall” (Broncus Medical Inc., priority 2011, dated 2019).

The structures appear in SMILES notation.

For this data set the following is noted: polymer system of polydimethylsiloxane vinyl terminated at various viscosity and a range of platinum-mono, di, tri and/or tetramethyldisiloxane complex.

Source text: The amount of vinyl siloxane cross-linker may determine the rate of the drug release and diffusivity of the polymer to the drug.

As for `CC(=O)O[C@H]1C(=O)[C@@]2(C)[C@H]([C@H](OC(=O)c3ccccc3)[C@]3(O)C[C@H](OC(=O)[C@H](O)[C@@H](NC(=O)c4ccccc4)c4ccccc4)C(C)=C1C3(C)C)[C@]1(OC(C)=O)CO[C@@H]1C[C@@H]2O` [paclitaxel], the release profile entry was “acceptable”.
